Experimental data published in PubChem BioAssay (NCI).
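Five concentrations, 48 hours, 96-well plates. Here, GI50 denotes the concentration required for 50% inhibition of growth. TGI denotes the concentration required for complete inhibition of growth.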

Tested on: NCI-H460 lung
Assay: DTP human tumour cell line panel, 48 h

SMILES	TGI [µM]	GI50 [µM]
CCOc1ccc(N=Cc2c3ccccc3nc3ccccc23)cc1	> 100	–
CC(=O)[CH-]C(=O)c1ccccc1.CC(=O)[CH-]C(=O)c1ccccc1.O=S(=O)([O-])c1cc([O-])c2c([O-])cc(S(=O)(=O)[O-])cc2c1.[Na+].[Ti+4]	> 100	> 100
NCCN.O=C([O-])[O-].O=C([O-])[O-].[Co+3].[K+]	> 100	> 100
C1=NC(N(Cc2ccccc2)Cc2ccccc2)N(Cc2ccccc2)N1 (configuration not stated)	37.2	–
NC(=O)CNc1ccc([As]=[As]c2ccc(NCC(N)=O)cc2)cc1 (configuration not stated)	35.4	10.6

Tested on: SR leukemia
Assay: DTP human tumour cell line panel, 48 h

SMILES	TGI [µM]	GI50 [µM]
CCc1cccc(C)c1NC(=O)CC1C(=O)Nc2ccccc2S1=O (configuration not stated)	> 100	–
Cc1ccc(N2C(=O)N(c3ccc(C)cc3)C3(SC=NN3C)C2=O)cc1 (configuration not stated)	> 100	–
O=C1c2ccc3c4ccccc4n(-c4ccccc4)c3c2C(=O)N1c1ccc(Cl)cc1	> 100	–
Cc1ccc2c(c1-c1ccccc1)C(=O)OC2	> 100	–
CSc1ccc2c(cc1=O)[C@@H](NC(=O)c1cc(O)c(O)c(O)c1)CCc1cc(O)c(O)c(O)c1-2	50.9	–
COc1cc(-c2nnc3n2NC=C(C(=O)O)S3)cc(OC)c1OC	> 100	–
C[P+](C)(C)c1ccccc1	> 100	–
O=C1c2ccccc2C(=O)N1C/C=N/NS(=O)(=O)c1ccc(Br)cc1	> 100	–
Cc1c(Cl)cccc1NC(=O)c1cccc([N+](=O)[O-])c1O	74.8	–
CC1COS(=O)O1 (configuration not stated)	> 100	–
O=C1CC2CCN(C(=O)c3ccccc3)CC2CCN1 (configuration not stated)	> 100	–
O=C1C=CC(=CC=C2C=CN(CCCCCCCCCCC(=O)NCCCCCCCCCCCC(=O)O)C=C2)C=C1	> 100	–
N#Cc1c(-c2ccco2)cc(-c2ccc(N)cc2)[nH]c1=O	> 100	–
C=CCC1(C)CCCCC1(O)CS(=O)c1ccccc1 (configuration not stated)	> 100	–
C1COCCSC2=C(SCCO1)SC(=C1SC3=C(SCCOCCOCCS3)S1)S2	> 100	–
COc1cc2c(cc1OC)C1Cc3cc(OC)c(OC)cc3N1CC2 (configuration not stated)	> 100	–
NCCCOc1cc(Cl)ccc1NC(=O)c1cc2ccccc2cc1OCCCN	4.71	1.72
O=C1C2[C@@H](C(=O)N1c1ccc(Br)cc1)C13C(=CC2([N+](=O)[O-])[C@@H]2C(=O)N(c4ccc(Br)cc4)C(=O)[C@@H]21)c1ccccc1N3c1ccccc1 (some centres not stated)	> 100	–
CCOC(=O)C1=C(Nc2ccc(Br)cc2)OCC1=O	> 100	–
Nc1ccc(C2=N/C(=C\c3cccc(N)c3)C(=O)O2)cc1	> 100	–
NC(=O)CNc1ccc([As]=[As]c2ccc(NCC(N)=O)cc2)cc1 (configuration not stated)	> 100	2.25

Tested on: HCT-15 colon
Assay: DTP human tumour cell line panel, 48 h

SMILES	TGI [µM]	GI50 [µM]
CCc1cccc(C)c1NC(=O)CC1C(=O)Nc2ccccc2S1=O (configuration not stated)	> 100	–
O=C1c2ccc3c4ccccc4n(-c4ccccc4)c3c2C(=O)N1c1ccc(Cl)cc1	> 100	–
Cc1ccc2c(c1-c1ccccc1)C(=O)OC2	> 100	–
CCC[CH2][Sn]1([CH2]CCC)[O]CC(COc2c(Cl)cc(Cl)cc2Cl)[O]1 (configuration not stated)	3.31	1.66
NC(CCc1ncc(C(=O)O)s1)C(=O)O (configuration not stated)	> 100	–
CSc1ccc2c(cc1=O)[C@@H](NC(=O)c1cc(O)c(O)c(O)c1)CCc1cc(O)c(O)c(O)c1-2	41.4	–
COC(=O)C(=O)CC(=O)c1cccc(OC)c1	> 100	–
COc1cc(-c2nnc3n2NC=C(C(=O)O)S3)cc(OC)c1OC	> 67.5	–
Cn1cc(S(=O)(=O)N2CCC3=Cc4c(cnn4-c4ccc(F)cc4)C[C@]3(C(=O)c3cc(C(F)(F)F)ccn3)C2)cn1	> 100	> 100
C[P+](C)(C)c1ccccc1	> 100	–
O=C1c2ccccc2C(=O)N1C/C=N/NS(=O)(=O)c1ccc(Br)cc1	> 100	–
COc1cc(/C=C/C(=O)Oc2ccccc2)ccc1C(=O)O/C=C/c1ccccc1	> 100	–
CC(Cl)CN1c2ccccc2Sc2ccc(Cl)cc21 (configuration not stated)	> 10	–
NC(=O)c1cn(Cc2ccccc2)c(=O)n1Cc1ccccc1	> 100	–
CCOC(=O)C(C)(c1c(C)[nH]c2ccccc12)c1c(C)[nH]c2ccccc12	32.5	–
Cc1c(Cl)cccc1NC(=O)c1cccc([N+](=O)[O-])c1O	> 100	–
CC1COS(=O)O1 (configuration not stated)	> 100	–
CC1CCC(C(C)(C)c2ccccc2)C(=O)C1 (configuration not stated)	> 100	–
COc1ccc(/C=C/c2cnccn2)cc1OC	> 10	–
O=C1CC2CCN(C(=O)c3ccccc3)CC2CCN1 (configuration not stated)	> 100	–
N#CC(C#N)=C1CCCOc2c1ccc1ccccc21	> 100	> 100

SMILES	TGI [µM]	GI50 [µM]
O=C1C=CC(=CC=C2C=CN(CCCCCCCCCCC(=O)NCCCCCCCCCCCC(=O)O)C=C2)C=C1	> 100	–
COc1cc2c3c(n(CCCN(C)CCO)c(=O)c2cc1OC)-c1cc2c(cc1C3=O)OCO2	> 100	6.79
N#Cc1c(-c2ccco2)cc(-c2ccc(N)cc2)[nH]c1=O	> 100	–
CNC(C)[C@H]1CCC2C3CC=C4C(=O)[C@@H](NC(=O)C=C(C)C)CC[C@]4(C)C3CC[C@@]21C (some centres not stated)	2.89	1.14
C=CCC1(C)CCCCC1(O)CS(=O)c1ccccc1 (configuration not stated)	> 100	–
C1COCCSC2=C(SCCO1)SC(=C1SC3=C(SCCOCCOCCS3)S1)S2	> 100	–
COc1cc(C(=O)O[C@H](C(N)=O)[C@]2(C)CO2)c2cccc(C)c2c1	2.82	0.282
COc1cc(/C=N\O[Si](C)(C)C(C)(C)C)ccc1O[Si](C)(C)C(C)(C)C	82.3	–
CC12CCC(=O)N1c1cccnc1N2 (configuration not stated)	> 100	–
NCCCOc1cc(Cl)ccc1NC(=O)c1cc2ccccc2cc1OCCCN	3.2	1.5
C=C1C(=O)OC2C1CC(OC(C)=O)/C(C)=C/CCC1(C)OC21 (configuration not stated)	> 100	–
COc1cc(/C=C/C(=O)C(C(=O)/C=C/c2ccc(OC(=O)CCNC34CC5CC(CC(C5)C3)C4)c(OC)c2)C(=O)CCNC23CC4CC(CC(C4)C2)C3)ccc1OC(=O)CCNC12CC3CC(CC(C3)C1)C2 (configuration not stated)	7.51	3.21
O=C1C2[C@@H](C(=O)N1c1ccc(Br)cc1)C13C(=CC2([N+](=O)[O-])[C@@H]2C(=O)N(c4ccc(Br)cc4)C(=O)[C@@H]21)c1ccccc1N3c1ccccc1 (some centres not stated)	> 100	–
O=C1/C(=C/N2N=C(c3ccc4ccccc4c3)CC2c2ccccc2O)SC(=S)N1c1cccnc1 (configuration not stated)	> 100	0.428
CCOC(=O)C1=C(Nc2ccc(Br)cc2)OCC1=O	> 100	–
CCOc1ccc(N=Cc2c3ccccc3nc3ccccc23)cc1	> 100	–
Nc1ccc(C2=N/C(=C\c3cccc(N)c3)C(=O)O2)cc1	> 100	–
CC(=O)[CH-]C(=O)c1ccccc1.CC(=O)[CH-]C(=O)c1ccccc1.O=S(=O)([O-])c1cc([O-])c2c([O-])cc(S(=O)(=O)[O-])cc2c1.[Na+].[Ti+4]	> 100	> 100
NCCN.O=C([O-])[O-].O=C([O-])[O-].[Co+3].[K+]	> 100	> 100
C1=NC(N(Cc2ccccc2)Cc2ccccc2)N(Cc2ccccc2)N1 (configuration not stated)	34.4	–
NC(=O)CNc1ccc([As]=[As]c2ccc(NCC(N)=O)cc2)cc1 (configuration not stated)	60.7	4.21

Tested on: BT-549 breast
Assay: DTP human tumour cell line panel, 48 h

SMILES	TGI [µM]	GI50 [µM]
COC(=O)C(=O)CC(=O)c1cccc(OC)c1	> 100	–
Cn1cc(S(=O)(=O)N2CCC3=Cc4c(cnn4-c4ccc(F)cc4)C[C@]3(C(=O)c3cc(C(F)(F)F)ccn3)C2)cn1	> 100	26.6
COc1cc(/C=C/C(=O)Oc2ccccc2)ccc1C(=O)O/C=C/c1ccccc1	> 100	–
CC(Cl)CN1c2ccccc2Sc2ccc(Cl)cc21 (configuration not stated)	> 10	–
COc1ccc(/C=C/c2cnccn2)cc1OC	> 10	–
N#CC(C#N)=C1CCCOc2c1ccc1ccccc21	> 100	98.8
COc1cc2c3c(n(CCCN(C)CCO)c(=O)c2cc1OC)-c1cc2c(cc1C3=O)OCO2	> 22.3	3.13
CNC(C)[C@H]1CCC2C3CC=C4C(=O)[C@@H](NC(=O)C=C(C)C)CC[C@]4(C)C3CC[C@@]21C (some centres not stated)	8.42	2.34
COc1cc(C(=O)O[C@H](C(N)=O)[C@]2(C)CO2)c2cccc(C)c2c1	0.655	< 0.0418
C=C1C(=O)OC2C1CC(OC(C)=O)/C(C)=C/CCC1(C)OC21 (configuration not stated)	> 100	–
COc1cc(/C=C/C(=O)C(C(=O)/C=C/c2ccc(OC(=O)CCNC34CC5CC(CC(C5)C3)C4)c(OC)c2)C(=O)CCNC23CC4CC(CC(C4)C2)C3)ccc1OC(=O)CCNC12CC3CC(CC(C3)C1)C2 (configuration not stated)	5.77	2.5
